Measured values taken from patent US7615527B2, “Peptides which modulate blood coagulation and methods of use thereof” (Oregon Health & Science University, priority 2001, dated 2009).
Square brackets hold non-standard residues; d marks the D form. Ends that are not written are not given here. Peptide text beside a SMILES is read from it. pY = N[C@@H](Cc1ccc(OP(=O)(O)O)cc1)C(=O)O

Legend:
[1] = molecular target: T1, α-thrombin (Homo sapiens, UniProt P00734); assay: Thrombin inhibition assay (ATIII, with or without heparin, Chromozym TH); format: biochemical; design: incubating 2 nM fluoresceinated peptide with 2 μM α-thrombin; thrombin: gift of Dr. John Fenton, II and Dr. Walter Kisiel; tracer peptide: Research Genetics
Procedure: Thrombin Inhibition Assay. […] In some experiments, 0.33 μM heparin (Sigma) was included in the reaction. The inhibition reaction was terminated by the addition of 0.3 ml of a vast molar excess of substrate, 1.25 mg/ml Chromozym TH (Boehringer Mannheim, Indianapolis, Ind.), and the remaining thrombin activity was subsequently measured by monitoring the absorbance at 405 nm for 15 minutes at 22° C. Results Two Tyrosine Residues in the γ′ Chain Are Sulfated. […] Since the γ′ chain differs from the γA chain only in its carboxyl terminal 20 amino acids, it has been assumed that the sulfated residues are within this 20 amino acid sequence, although the addition of the γ′ sequence could also induce conformational changes in the γ chain that expose new sites for sulfation upstream of the carboxyl terminus. […] The carboxyl terminus of the γ′ chain contains two potential sites for tyrosine sulfation at positions γ′ Y418 and γ′ Y422. […] However, no direct evidence of sulfation at γ′ Y418 or γ′ Y422 was presented. Furthermore, in both bovine and rat fibrinogen, the γ′ chain terminates at the equivalent of γ′ 420, prior to γ′ Y422 (37, 38). The rat γ′ chain does, however, contain sulfotyrosine (39). […]

[2] = molecular target: T1, α-thrombin; assay: Thrombin/γ′ peptide binding assay (fluorescence polarization); design: Human α-thrombin; gift: Dr. John Fenton, II (New York State Department of Health) and Dr. Walter Kisiel (University of New Mexico); conditions: 2 nM fluoresceinated peptide, 22° C., pH 7.4, read-out: Kd, binding of α-thrombin to fluoresceinated γ′ 408-427 peptide
From the text: Proteins, Peptides, and DNA Aptamers. Human α-thrombin was generously provided by Dr. John Fenton, II (New York State Department of Health, Albany, N.Y.) and Dr. Walter Kisiel (University of New Mexico, Albuquerque, N. Mex.). Human γ-thrombin was obtained from Haematologic Technologies, Inc. (Essex Junction, Vt.). Tyrosine-phosphorylated derivatives of peptides corresponding to the γ′ chain carboxyl terminus, […] (SEQ ID NO: 11), were obtained from Research Genetics, Inc. (Huntsville, Ala.) and GeneMed Synthesis, Inc. (South San Francisco, Calif.). The peptides were purified to >95% purity by HPLC, and their molecular weights were verified by mass spectrometry. […] The amount of fibrinogen secreted during the labeling was determined using an ELISA described previously (10). […] To quantitate the binding of thrombin to the γ′ chain carboxyl terminus, 50 nM […]-Y (PO3)-DSL-Y (PO3)—PEDDL (SEQ ID NO: 10) peptide (Research Genetics), corresponding to the carboxyl terminal twenty amino acids of the γ′ chain, was labeled for 1 hour at 37° C. with a 5-fold molar excess of fluorescein succinimidyl ester (PanVera) in 100 mM potassium phosphate, pH 7.0 as per the manufacturer's protocol. […] Fluorescence polarization was measured following excitation at 488 nm and emission at 535 nm. […]

[3] = molecular target: T1, α-thrombin; assay: Competitive binding assay: α-thrombin binding to fluoresceinated γ′ 408-427 peptide; design: incubating 2 nM fluoresceinated peptide with 2 μM α-thrombin; thrombin: gift of Dr. John Fenton, II and Dr. Walter Kisiel; tracer peptide: Research Genetics; conditions: 2 nM fluoresceinated peptide with 2 μM α-thrombin
From the text: Proteins, Peptides, and DNA Aptamers. Human α-thrombin was generously provided by Dr. John Fenton, II (New York State Department of Health, Albany, N.Y.) and Dr. Walter Kisiel (University of New Mexico, Albuquerque, N. Mex.). Human γ-thrombin was obtained from Haematologic Technologies, Inc. (Essex Junction, Vt.). Tyrosine-phosphorylated derivatives of peptides corresponding to the γ′ chain carboxyl terminus, […] (SEQ ID NO: 11), were obtained from Research Genetics, Inc. (Huntsville, Ala.) and GeneMed Synthesis, Inc. (South San Francisco, Calif.). The peptides were purified to >95% purity by HPLC, and their molecular weights were verified by mass spectrometry. Tyrosine-sulfated, amino-terminal acetylated hirudin peptide 53-65 was obtained from Bachem, Inc. (Torrance, Calif.) and tyrosine-sulfated hirudin peptide 54-65 was obtained from Sigma (St. Louis, Mo.). Single-stranded DNA aptamers 5′-GGT-TGG-TGT-GGT-TGG-3′ (SEQ ID NO: 5), referred to as HD1, and 5′-AGT-CCG-TGG-TAG-GGC-AGG-TTG-GGG-TGA-CT-3′ (SEQ ID NO: 6), referred to as HD22, were generously provided by Dr. Jeffrey I. Weitz (McMaster University, Hamilton, ONT, Canada). A monoclonal antibody directed against thrombin exosite II (34) was a gift from Dr. Douglas M. Tollefsen (Washington University, St. Louis, Mo.). Production of Recombinant Fibrinogens Recombinant fibrinogen molecules were expressed with tyrosine to phenylalanine mutations in the γ′ chain at positions γ′ 418 and/or γ′ 422. Plasmid pAG-γ′ (10) was used as the template for site-directed mutagenesis (35) using the primer GAA-ACA-GAA-TTT-GAC-TCA-CTT (SEQ ID NO: 7) for Y418F, GAC-TCA-CTT-TTC-CCT-GAG-GAT (SEQ ID NO: 8) for Y422F, and GAA-ACA-GAA-TTT-GAC-TCA-CTT-TTC-CCT-GAG-GAT (SEQ ID NO: 9) for Y418F/Y422F. The mutated pAG-γ′ plasmids were co-transfected with pBD-1 into a baby hamster kidney cell line as described previously (10). Recombinant fibrinogens were labeled with 1 mCi/ml ^35SO4 in serum-free medium and immunoprecipitated from the medium using a rabbit polyclonal anti-fibrinogen antiserum (Accurate Chemical and Scientific Corp., Westbury, N.Y.) as described previously (10). The amount of fibrinogen secreted during the labeling was determined using an ELISA described previously (10). Identical amounts of radiolabeled fibrinogens (300 ng) were resolved by SDS-polyacrylamide gel electrophoresis on 10% gels under reducing conditions (36) and exposed to X-ray film. Thrombin/γ′ Peptide Binding Assay. To quantitate the binding of thrombin to the γ′ chain carboxyl terminus, 50 nM […]-Y (PO3)-DSL-Y (PO3)—PEDDL (SEQ ID NO: 10) peptide (Research Genetics), corresponding to the carboxyl terminal twenty amino acids of the γ′ chain, was labeled for 1 hour at 37° C. with a 5-fold molar excess of fluorescein succinimidyl ester (PanVera) in 100 mM potassium phosphate, pH 7.0 as per the manufacturer's protocol. Unreacted fluorescein succinimidyl ester was reacted with 100 mM Tris, pH 8.0 for 30 minutes and removed by desalting the fluoresceinated peptide on Sephadex G-15 in 137 mM NaCl/2.7 mM KCl/10 mM HEPES, pH 7.4. 2 nM fluoresceinated peptide was incubated with the indicated concentrations of thrombin for 30 seconds at 22° C. in 50 μg/ml BSA/137 mM NaCl/2.7 mM KCl/10 mM HEPES, pH 7.4. Fluorescence polarization was measured following excitation at 488 nm and emission at 535 nm. The data are fit to the equation: y=x/(b+x) where y is fit to x, using “x” as the concentration of thrombin and “b” as the Kd.
Competitive binding assays were performed by incubating 2 nM fluoresceinated peptide with 2 μM α-thrombin in the presence of the indicated concentrations of competing ligand. Fluorescence polarization was measured following excitation at 488 nm and emission at 535 nm.

[4] = system: normal human reference plasma; assay: Activated partial thromboplastin time (aPTT) assay in human plasma; format: biochemical; conditions: human plasma; 0-1 mM peptide
Procedure: Activated Partial Thromboplastin Time (aPTT) Assay. This anti-coagulation assay was chosen for testing the γ′ peptides due to its sensitivity to heparin-like compounds, its ease of use, and the ability to automate the procedure. An MLA 1600 instrument (Organon Teknika) was used to quantitate the effect of the γ′ peptides on the aPTT, using the manufacturer's protocol. Briefly, 0-1 mM γ′ peptides or 0-10 units/ml unfractionated heparin was added to 50 μl of normal reference plasma (Ortho) and manually loaded into the MLA 1600. The MLA 1600 added SynthASil aPTT reagent (Ortho) to initiate clotting, and clot formation was monitored spectrophotometrically for 106 seconds. […] Prothrombin Time/International Normalized Ratio Assay. This clotting assay is less sensitive to heparin than the aPTT, and may be used to determine if a γ′ peptide is capable of prolonging the prothrombin time (PT) to the same extent as the 3 aPTT. One-stage PT assays may be performed using an MLA 1600 instrument according to the manufacturer's protocol. Briefly, 0-1 mM γ′ peptide or scrambled peptide or 0-10 units/ml unfractionated heparin may be added to 50 μl of normal reference plasma (Ortho) and manually loaded into the MLA 1600. The MLA 1600 may be used to add recombinant thromboplastin (Recombiplastin, Ortho) to initiate clotting, and clot formation monitored spectrophotometrically for 106 seconds. If a clot is not generated within 106 seconds, the MLA will automatically extend the observation time to 212 seconds.
An aPTT assay was performed using human plasma to determine the effect of γ′ peptide on the clotting time in this system. […] The MLA 1600 added SynthASil aPTT reagent (Ortho) to initiate clotting and clot formation was monitored spectrophotometrically for 106 seconds. […]
An aPTT assay was performed using human plasma to determine the effect of γ′ deletion peptides on the clotting time in this system. […] The MLA 1600 added SynthASil aPTT reagent (Ortho) to initiate clotting and clot formation was monitored spectrophotometrically for 106 seconds. […]

[5] = molecular target: thrombin (Homo sapiens, UniProt P00734); conditions: prior studies by others (43); read-out: Ki, direct inhibitory activity towards thrombin; cited from earlier work

| Inhibition of α-thrombin binding to fluoresceinated γ′ 408-427 peptide (in words) [3] | Molecule | Anticoagulant effect in aPTT (in words) [4] | other results |
| --- | --- | --- | --- |
| – | CC(C)C[C@H](NC(=O)[C@H](CC(=O)O)NC(=O)[C@H](CC(=O)O)NC(=O)[C@H](CCC(=O)O)NC(=O)[C@@H]1CCCN1C(=O)[C@H](Cc1ccc(OP(=O)(O)O)cc1)NC(=O)[C@H](CC(C)C)NC(=O)[C@H](CO)NC(=O)[C@H](CC(=O)O)NC(=O)[C@H](Cc1ccc(OP(=O)(O)O)cc1)NC(=O)[C@H](CCC(=O)O)NC(=O)[C@@H](NC(=O)[C@H](CCC(=O)O)NC(=O)[C@H](C)NC(=O)[C@@H]1CCCN1C(=O)[C@H](Cc1c[nH]cn1)NC(=O)[C@H](CCC(=O)O)NC(=O)[C@@H]1CCCN1C(=O)[C@H](CCCNC(=N)N)NC(=O)[C@@H](N)C(C)C)[C@@H](C)O)C(=O)O [γ′ 408-427] (H-VRPEHPAETE[pY]DSL[pY]PEDDL-OH; N-terminus and C-terminus assumed) | – | Effect on heparin's acceleration of thrombin inhibition by ATIII ([1]; 0.33 μM heparin, 13.7 nM ATIII, 0-1.0 mM γ′ peptide, 15 minutes): antagonized the accelerative activity of heparin in a dose-dependent manner; Direct inhibition of thrombin ([1]; concentrations up to 1 mM, data not shown): not directly inhibitory; Kd [2]: 430 ± 80 nM; Ki ([3]; read-out: Ki, competition for α-thrombin binding to fluoresceinated γ′ 408-427 peptide): 520 ± 140 nM |
| completely inactive | EY(*)DSLY(*)PEDDL (EYDSLYPEDDL; not fully specified (residues 2, 6); printed as EY(*)DSLY(*)PEDDL) [peptide 417-427] | further reduction in activity | – |
| completely inactive | VRPEHPAETEYDSLYPEDDL [nonphosphorylated peptide] | – | Ki [5]: 130000 nM |
| lower affinity | VRPEHPAETEY(*)DSLY(*)PE (VRPEHPAETEYDSLYPE; not fully specified (residues 11, 15); printed as VRPEHPAETEY(*)DSLY(*)PE) [peptide 408-424] | – | – |
| lower affinity | AETEY(*)DSLY(*)PEDDL (AETEYDSLYPEDDL; not fully specified (residues 5, 9); printed as AETEY(*)DSLY(*)PEDDL) [peptide 414-427] | reduced level of anticoagulant activity | – |

| Molecule | Inhibition of α-thrombin binding to fluoresceinated γ′ 408-427 peptide (in words) [3] | Anticoagulant effect in aPTT (in words) [4] | other results |
| --- | --- | --- | --- |
| 5′-AGT-CCG-TGG-TAG-GGC-AGG-TTG-GGG-TGA-CT-3′ [HD22, reference compound] | more potent competitor than HD1 | – | – |
